In patent US20100069487A1, “METHOD FOR THE TREATMENT OF PSORIASIS” (REDOX PHARMACEUTICAL CORPORATION, priority 2006, published 2010):

Legend:
[1] = in vivo
Excerpt: • 1. It was recently discovered that the transcription factor Zinc-finger protein Gli-similar (Glisl) is found only in psoriatic and not in the epidermis of healthy skin^2. The expression of this protein is restricted to the suprabasal level of the psoriatic epidermis. […] The mode of action of the drug involves displacement Zinc from the protein by the axial ligation of the drug's cobalt (III) complex to the nitrogen of the imidazole ring of the histidine residues. The zinc-finger bearing protein is thus inactivated^4. • We have discovered that Doxovir (CTC-96) will inactivate Glis1 in Psoriatic epidermis and as a result may selectively retard the abnormal proliferation and differentiation of psoriatic keratinocytes. • 2. There have been several reports of the possibility that Human Papilloma Viruses (HPVs) are associated with at least certain manifestations of psoriasis (e.g. ^5,6,7,8). Papillomaviruses proliferate and affect the differentiation and proliferation of keratinocytes. The possible role of the virus (particularly HPV type 5) in the etiology or the maintenance of the abnormal differentiation of psoriatic human skin keratinocytes has thus been postulated. • JunB protein, a component of the ubiquitous transcription factor AP-1, regulates cell proliferation, differentiation, stress responses and cytokine expression in various tissues. […]

[2] = test system: Zinc-fingers in which the Zinc is tetrahedrally coordinated to cysteines and histidines; conditions: cysteine/histidine-coordinated Zinc; cited from earlier work
Papillomaviruses = conditions: cited from earlier work
[3] = test system: type II collagen-induced arthritis; conditions: mice; cited from earlier work

CC(/C=C(/C)[O-])=NCCN=C(C)/C=C(/C)[O-].Cc1ncc[nH]1.Cc1ncc[nH]1.[Br-].[Co+3] [Doxovir]
adverse effects on intact skin [1]: no adverse effects on intact skin | disruption of structure and function of Zinc-fingers [2]: selectively disrupts the structure and function of Zinc-fingers | anti-papillomavirus activity (Papillomaviruses): distinct anti-papillomavirus activity | therapeutic activity for type II collagen-induced arthritis [3]: proven to have therapeutic activity
